The text below walks through data of patent US8097615B2, “Neurofibrillary labels” (Wista Laboratories Ltd., priority 2001, dated 2012).

The conditions of assay [1]: PET after injection; cases with clinical and neuroradiological diagnosis of Alzheimer's disease; cited from earlier work.
Assay [2] addresses T1, synthetic beta-amyloid fibrils (Homo sapiens, UniProt P05067).
T1 construct: host or cells: synthetic peptide
To be noted: in vitro; cited from earlier work.

For another assay, the system named is PHFs. Put plainly: Morphological studies of PHFs in the presence of phenothiazines (electron microscopy).
Assay [3] has as its target T2, tau-tau binding (Homo sapiens, UniProt P10636).
T2 construct: a truncated tau protein corresponding to the core fragment and terminating at Ala390-dGA; dGAE which terminates at Glu-391; made in house; host or cells: E. coli BL21 (DE3), pRK172; DE52 flow-through, P11 phosphocellulose, PEG concentration, no heat step (Preparation 2)
Put plainly: Solid-phase tau-tau binding assay (dGA solid phase, dGAE liquid phase), tau Preparation 2. It is filed as biochemical. Conditions: Preparation 2. The method, then:
Preparation 2 differs from Preparation 1 above in the following respects: (1) The concentration of cells at the sonication stage is increased by 5-fold. (2) A batchwise adsorption of non-tau proteins to DE52 is included. (3) The proteins are not subjected to heat treatment. (4) The final step involves concentration using polyethylene glycol.
Escherichia coli is grown in 2×TY medium (Oxoid) supplemented with ampicillin (50 micrograms per ml) to late-logarithmic phase. Cells from 5 liters of culture are harvested by centrifugation and the cell pellets frozen rapidly over liquid nitrogen. The pellets are taken up with 50 mM PIPES (pH 6.8) containing 1 mM EDTA, 1 mM dithiothreitol and 1 mM phenylmethylsulphonylfluoride (PMSF) and bacteria lysed by sonication (2×3 min) at 4 C. The mixture is centrifuged at 10,000 rpm for 20 min. The supernatant is rotated with 1 gram of Whatman DE52 for 3 hr at 4 C. The mixture is separated on a column and the flow-through material that fails to bind to DE52 is incubated for 3 hr at 4 C, with rotation, with 0.4 g of Whatman P11 (freshly regenerated according to manufacturer's recommendations). The column is washed with column buffer (50 mM PIPES, pH 6.8 containing 1 mM EGTA, 5 mM EDTA, 0.2 mM MgCl2, 5 mM β-mercaptoethanol and 1 mM PMSF). Tau protein is eluted stepwise with a 0.1 to 1 M gradient of KCl in column buffer. Fractions containing tau (determined by immunoassay) are pooled and dialysed against 80 mM PIPES (pH6.8) containing 1 mM EGTA, 1 mM MgCl2 and 5 mM β-mercatoethanol, using dialysis tubing with a molecular weight cut-off of 1,000. The dialysate is concentrated by applying polyethylene glycol 8000 to the outside of the sac for 2-3 hr. The final concentration of tau ranged from 3 to 10 mg per ml.
When the proteins dGA and dGAE were prepared as indicated above (“Preparation 2”), the properties of the tau-tau binding assay were altered relative to the properties obtained using the preparative method described in WO96/30766 (“Preparation 1”).
The assay is performed using 96 well PVC plates (Falcon Cat. No. 353912 are used), and the following steps:
1. 50 μl dGA (˜10 μg/ml) in carbonate buffer, incubate 1 h at 37° C.
(Carbonate buffer: 50 mM carbonate bicarbonate, pH 9.6 (Na2CO3 1.59 g/l, NaHCO3 2.93 g/l))
2. Wash plate in 0.05% Tween-20.
3. 200 μl PBS+2% Marvel, incubate 1 h at 37° C.
4. Rinse plate 2× in deionised water, then wash in 0.05% Tween-20.
5. 50 μl dGAE (˜10 μg/ml) plus drug in PBS+1% fish skin gelatin+0.05% Tween-20, incubate 1 h at 37° C.
6. Wash plate in 0.05% Tween-20.
7. 50 μl antibody 423 (1:10 dilution in PBS+2% Marvel), incubate 1 h at 37° C.
8. Rinse plate 2× in deionised water, then wash in 0.05% Tween-20.
9. 50 μl HRP-anti-mouse (1:1000 dilution in PBS+0.05% Tween-20), incubate 1 h at 37° C.
10. Wash plate in 0.05% Tween-20, then rinse 1× with deionised water.
11. 50 μl substrate solution, read immediately initial rate over 2 min in plate reader at OD650.
(Substrate solution: 50 mM sodium acetate, pH 5.0+TMB (1 ml/100 ml of a 10 mg/ml solution in DMSO)+H2O2 (10 μl/100 ml)).

In the next assay the test system is tangle fragments. Put plainly: Competitive binding assay: displacement of primulin fluorescence from tangle fragments (ifI). The arrangement: species or system human. To be noted: fluorescence end point. As to the method:
IfI material was homogenised in a 0.2 ml glass homogeniser in PBS. To the suspension, test compounds were added to final concentrations ranging from 0.1% to 0.00001%. […] The suspensions were transferred to a glass slide, and examined by fluorescence microscopy across a range of fluorescence filter blocks, covering excitation and emission wavelengths between 380 nm and 570 nm. The end point sought in these observations was displacement of typical primulin fluorescence from tangle fragments.

Assay [4] deals with tau-tau binding. In words: Solid-phase tau-tau binding assay, tau Preparation 1 (WO96/30766). It is filed as biochemical, human. From the text:
This point was further examined by studying the potency of typical aggregated tau ligands as tau-aggregation inhibitors. It has been shown previously that tau aggregation inhibitors (e.g. diaminophenothiazines) can be identified on the basis of inhibition of tau-tau binding in a solid-phase assay (WO 96/30766). […] Thus, although these compounds are potent ligands for tau within the PHF-core, they are at most weak inhibitors at the site required for inhibition of tau-tau binding.
Large-scale purification (1 liter bacterial culture) of tau fragments was carried out as described by Goedert and Jakes (1990, EMBO J., 9, 4225-4230), with minor modifications. Cells were disrupted by rapid freezing of the cell pellet in liquid nitrogen. The pellets were then suspended in buffer containing 50 mM PIPES, 1 mM dithiothreitol (DTT) (pH 6.8). The thermostable proteins in the supernatant were dialysed against PIPES/DTT, then applied to a column containing phosphocellulose equilibrated in the same buffer. […] Fractions were analysed by SDS-PAGE and both Coomassie staining and immunoblotting. […] Protein concentrations were measured by the Lowry method (Harrington C R (1990), “Lowry protein assay containing sodium dodecyl sulphate in microtitre plates for protein determinations on fractions from brain tissue”, Analytical Biochemistry 186: 285-287).

For assay [5], the target named is T2, tau-tau binding. Put plainly: Relief of DMMB inhibition of tau-tau binding by ligands (Preparation 2). Type of assay: biochemical. From the text: 2. using tau proteins prepared in this manner for testing putative ligands in the tau-tau binding assay provided in WO96/30766 to identify substances which have minimal or entirely absent activity as tau-aggregation inhibitors or enhance tau-tau binding at high concentrations; 3. testing putative ligands in the presence of an exemplary potent tau-aggregation inhibitor, such as DMMB, at an inhibitory concentration; 4. putative ligands can be identified by the property that they lack capacity to block tau-tau binding through the repeat domain, but block the inhibitory activity of a potent tau-aggregation inhibitor.
(ii) contacting (a) a tau protein or a derivative thereof containing the tau core fragment bound to a solid phase so as to expose a high affinity tau capture site (e.g. a truncated tau protein corresponding to the core fragment and terminating at Ala390-dGA), with (b) a liquid phase tau protein or derivative thereof capable of binding to the solid phase tau protein or derivative (e.g. dGAE which terminates at Glu-391), and (c) said selected first agent and (d) a second agent known to be tau-tau binding inhibitor, (iii) selecting a first agent which fully or partially relieves the inhibition of binding of the liquid phase tau protein or derivative of (b) to the solid phase tau protein or derivative of (a) by the inhibitor (d).
Similar results are shown for 15 μM DMMB in the presence of increasing concentrations of Primulin (c) and Thiazin Red (d).
For each graph, Tau-Tau binding is shown in the presence of constant concentrations of DMMB co-incubated with Primulin at 0×, 1×, 5×, 10×, 100× the DMMB concentrations shown.
This implies that the Tau-aggregation enhancement effect of these ligands is proportional to the fraction of ligand-binding sites occupied, presumably within the Tau aggregates introduced into the aqueous-phase of the assay. The mean Bmax for both ligands is ˜1.6. That is, the maximum ligand effect is to produce 1.6-fold the Tau-Tau binding signal seen in the absence of any drug. The mean Kd for this effect is ˜15×. That is, for any given concentration of DMMB>4 μM, 50% of maximal enhancement of Tau-Tau binding can be seen when the ligand molar excess is 15-fold relative to the concentration of DMMB.

T2 sequence (P10636 614-708 limits assumed): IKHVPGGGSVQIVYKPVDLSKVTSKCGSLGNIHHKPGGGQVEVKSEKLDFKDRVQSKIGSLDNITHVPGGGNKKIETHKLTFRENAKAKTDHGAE
T1 sequence (P05067 672-711 limits assumed): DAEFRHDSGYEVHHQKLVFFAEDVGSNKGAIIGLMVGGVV

Consider `CC(=C(C#N)C#N)c1ccc2cc(N(C)CC[18F])ccc2c1` [FDDNP, 2-(1-{6-[(2-[^18F]fluoroethyl)(methyl)amino]-2-naphthyl}ethylidene)malononitrile], for which the “relative retention time (RRT)” value in assay [1] is given as “increased relative retention time”. Besides, the “binding to synthetic beta-amyloid fibrils” value in assay [2] is “bind with high affinity”.
For the molecule `CN(C)c1ccc2nc3ccc(=[N+](C)C)cc-3sc2c1` [methylene blue], the “disruption of PHF structure” value in the assay on PHFs was “disruption of PHF structure in the presence of sufficiently high concentrations”.
Turning to `Cc1ccc2sc(-c3ccc(N=Nc4cc(S(=O)(=O)[O-])c5ccccc5c4O)cc3)nc2c1S(=O)(=O)[O-].[Na+].[Na+]` [thiazin red], the figures for the “inhibition of tau-tau binding” value at tau-tau binding [3] and in the assay with tau-tau binding [4] were “no inhibitory activity” and “weak inhibitors of tau-tau binding”, respectively. For the same molecule, the “competition with / displacement of other ligands at tangles” value with tangle fragments is “compete with primulin at equivalent concentrations”. Also, the “BMax of tau-tau binding” value on tau-tau binding [5] (5 μM DMMB, Binding=(BMax×[ligand])/(Kd+[ligand])) is 1.64. Besides, the “reversal of inhibitory effect of DMMB on tau-tau binding” value on tau-tau binding [5] (co-incubation with increasing molar excess of ligand) is reported as “completely reversed”.
